Data taken from patent publication US6737383B1, “Herbicidal oxadiazolidines” (priority 1999, dated 2004).

Assays:
purple nutsedge = assay: Test B pre/postemergence purple nutsedge; type: in vivo, Cyperus rotundus
How it was run: (§1)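 Response is a visual 0-to-10 score relative to untreated plants, where 0 means no effect and 10 means complete control, taken twelve to sixteen days after application. Treatments went onto soil at planting and onto foliage of 1- to 4-leaf plants, using a surfactant-containing non-phytotoxic solvent.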

corn = assay: Test B pre/postemergence corn; type: in vivo, Zea mays
How it was run: as §1

pigweed = assay: Test B pre/postemergence pigweed; type: in vivo, Amaranthus retroflexus
How it was run: as §1

wild oat = assay: Test B pre/postemergence wild oat; type: in vivo, Avena fatua
How it was run: as §1

rice = assay: Test B flood test rice; type: in vivo, Oryza sativa; conditions: Pre-emergence
How it was run: (§2)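 Read-out is a visual response score from 0 (no effect) to 10 (complete control), assigned by comparison with untreated controls. Treatment was applied at the 2-leaf stage, and plants stayed in the greenhouse for twelve to sixteen days before scoring.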

sugar beet = assay: Test B pre/postemergence sugar beet; type: in vivo, Beta vulgaris
How it was run: as §1

rape = assay: Test B pre/postemergence rape; type: in vivo, Brassica napus
How it was run: as §1

crabgrass = assay: Test B pre/postemergence crabgrass; type: in vivo, Digitaria sanguinalis
How it was run: as §1

bamyardgrass = assay: Test B flood test barnyardgrass; type: in vivo, Echinochloa crus-galli; conditions: Pre-emergence
How it was run: as §2

smallflower flatsedge = assay: Test B flood test smallflower flatsedge; type: in vivo, Cyperus difformis; conditions: Pre-emergence
How it was run: as §2

giant foxtail = assay: Test B pre/postemergence giant foxtail; type: in vivo, Setaria faberii
How it was run: as §1

duck salad = assay: Test B flood test duck salad; type: in vivo, Heteranthera limosa; conditions: Pre-emergence
How it was run: as §2

soybean = assay: Test B pre/postemergence soybean; type: in vivo, Glycine max
How it was run: as §1

morningglory = assay: Test B pre/postemergence morningglory; type: in vivo, Ipomoea hederacea
How it was run: as §1

cocklebur = assay: Test B pre/postemergence cocklebur; type: in vivo, Xanthium strumarium
How it was run: as §1

surinam grass = assay: Test B pre/postemergence surinam grass; type: in vivo, Brachiaria decumbens
How it was run: as §1

[1] = Postemergence, Rate 1000 g/ha, scale 0 to 10 (0 no effect, 10 complete control)
[2] = Preemergence, Rate 250 g/ha, scale of 0 to 10 where 0 is no effect and 10 is complete control
[3] = Rate 500 g/ha, Postemergence, scale 0 to 10, 0 no effect, 10 complete control
[4] = Preemergence, Rate 500 g/ha, scale of 0 to 10 where 0 is no effect and 10 is complete control
[5] = Rate 125 g/ha, Postemergence, scale 0 to 10
[6] = Rate 125 g/ha, Preemergence, scale of 0 to 10 where 0 is no effect and 10 is complete control
[7] = Rate 1000 g/ha, Preemergence, scale 0 to 10 (0 no effect, 10 complete control)
[8] = Rate 1000 g/ha, scale 0 to 10 (0 no effect, 10 complete control)
[9] = Rate 125 g/ha, flood test species, scale 0 to 10 where 0 is no effect and 10 is complete control
[10] = Rate 250 g/ha, flood-test species, scale 0 to 10, 0 is no effect, 10 is complete control
[11] = Rate 500 g/ha, flood test species, scale 0 to 10 (0 no effect, 10 complete control)

CCOC(=O)C(C)N(C(=O)n1oc(=O)n(-c2ccccc2C)c1=O)c1ccc(F)cc1 (stereo not shown) [Compound 247]
1: Soybean plant response rating (soybean; [1])
7: Plant response rating, Giant foxtail (giant foxtail; [7])
3: Plant response rating, Crabgrass (crabgrass; [7]) | Plant response rating, Giant foxtail (giant foxtail; [4])
2: Crabgrass plant response rating (crabgrass; [2]) | Plant response rating, Crabgrass (crabgrass; [4]) | Giant foxtail plant response rating (giant foxtail; [2]) | Plant response rating (0 to 10; 0 is no effect, 10 is complete control), Morningglory (morningglory; Rate 250 g/ha, Postemergence) | Morningglory plant response rating (morningglory; [3])
4: Morningglory plant response rating (morningglory; [1])
0: Nutsedge plant response rating (purple nutsedge; [1]) | Nutsedge plant response rating (purple nutsedge; [2]) | Plant response rating (0 to 10; 0 is no effect, 10 is complete control), Nutsedge (purple nutsedge; Rate 250 g/ha, Postemergence) | Nutsedge plant response rating (purple nutsedge; [3]) | Corn plant response rating (corn; [1]) | Corn plant response rating (corn; [2]) | Plant response rating, Corn (corn; [4]) | Corn plant response rating (corn; [5]) | Corn plant response rating (corn; [6]) | Plant response rating (0 to 10; 0 is no effect, 10 is complete control), Corn (corn; Rate 250 g/ha, Postemergence) | Corn plant response rating (corn; [3]) | Plant response rating, Corn (corn; [7]) | Redroot pigweed plant response rating (pigweed; [1]) | Redroot pigweed plant response rating (pigweed; [2]) | Plant response rating, Redroot pigweed (pigweed; [4]) | Redroot pigweed plant response rating (pigweed; [6]) | Plant response rating (0 to 10; 0 is no effect, 10 is complete control), Redroot pigweed (pigweed; Rate 250 g/ha, Postemergence) | Redroot pigweed plant response rating (pigweed; [3]) | Plant response rating, Redroot pigweed (pigweed; [7]) | Wild oats plant response rating (wild oat; [1]) | Wild oats plant response rating (wild oat; [2]) | Plant response rating, Wild oats (wild oat; [4]) | Wild oats plant response rating (wild oat; [6]) | Wild oats plant response rating (wild oat; [3]) | Plant response rating, Wild oats (wild oat; [7]) | Rice plant response rating (rice; [8]) | Rice plant response rating (rice; [9]) | Rice plant response rating (rice; [10]) | Rice plant response rating (rice; [11]) | Sugarbeets plant response rating (sugar beet; [1]) | Sugarbeets plant response rating (sugar beet; [2]) | Plant response rating, Sugarbeets (sugar beet; [4]) | Sugarbeets plant response rating (sugar beet; [6]) | Sugarbeets plant response rating (sugar beet; [3]) | Plant response rating, Sugarbeets (sugar beet; [7]) | Rape plant response rating (rape; [1]) | Rape plant response rating (rape; [2]) | Plant response rating, Rape (rape; [4]) | Rape plant response rating (rape; [6]) | Plant response rating (0 to 10; 0 is no effect, 10 is complete control), Rape (rape; Rate 250 g/ha, Postemergence) | Rape plant response rating (rape; [3]) | Plant response rating, Rape (rape; [7]) | Crabgrass plant response rating (crabgrass; [1]) | Crabgrass plant response rating (crabgrass; [6]) | Plant response rating (0 to 10; 0 is no effect, 10 is complete control), Crabgrass (crabgrass; Rate 250 g/ha, Postemergence) | Crabgrass plant response rating (crabgrass; [3]) | Barnyardgrass plant response rating (bamyardgrass; [8]) | Barnyardgrass plant response rating (bamyardgrass; [9]) | Barnyardgrass plant response rating (bamyardgrass; [10]) | Barnyardgrass plant response rating (bamyardgrass; [11]) | S. Flatsedge plant response rating (smallflower flatsedge; [8]) | S. Flatsedge plant response rating (smallflower flatsedge; [9]) | S. Flatsedge plant response rating (smallflower flatsedge; [10]) | S. Flatsedge plant response rating (smallflower flatsedge; [11]) | Giant foxtail plant response rating (giant foxtail; [1]) | Giant foxtail plant response rating (giant foxtail; [6]) | Plant response rating (0 to 10; 0 is no effect, 10 is complete control), Giant foxtail (giant foxtail; Rate 250 g/ha, Postemergence) | Giant foxtail plant response rating (giant foxtail; [3]) | Ducksalad plant response rating (duck salad; [8]) | Ducksalad plant response rating (duck salad; [9]) | Ducksalad plant response rating (duck salad; [10]) | Ducksalad plant response rating (duck salad; [11]) | Soybean plant response rating (soybean; [2]) | Plant response rating, Soybean (soybean; [4]) | Soybean plant response rating (soybean; [6]) | Soybean plant response rating (soybean; [3]) | Plant response rating, Soybean (soybean; [7]) | Morningglory plant response rating (morningglory; [2]) | Plant response rating, Morningglory (morningglory; [4]) | Morningglory plant response rating (morningglory; [6]) | Plant response rating, Morningglory (morningglory; [7]) | Cocklebur plant response rating (cocklebur; [1]) | Cocklebur plant response rating (cocklebur; [2]) | Plant response rating, Cocklebur (cocklebur; [4]) | Cocklebur plant response rating (cocklebur; [5]) | Cocklebur plant response rating (cocklebur; [6]) | Plant response rating (0 to 10; 0 is no effect, 10 is complete control), Cocklebur (cocklebur; Rate 250 g/ha, Postemergence) | Cocklebur plant response rating (cocklebur; [3]) | Plant response rating, Cocklebur (cocklebur; [7]) | B. signalgrass plant response rating (surinam grass; [1]) | B. signalgrass plant response rating (surinam grass; [2]) | Plant response rating, B. signalgrass (surinam grass; [4]) | B. signalgrass plant response rating (surinam grass; Rate 125 g/ha, Postemergence, scale 0 (no effect) to 10 (complete control)) | B. signalgrass plant response rating (surinam grass; [6]) | Plant response rating (0 to 10; 0 is no effect, 10 is complete control), B. signalgrass (surinam grass; Rate 250 g/ha, Postemergence) | B. signalgrass plant response rating (surinam grass; [3]) | Plant response rating, B. signalgrass (surinam grass; [7])
